Assay results: patent US20210186915A1, “PHARMACEUTICAL COMPOSITIONS HAVING HIGH DRUG LOADINGS OF MEDIUM CHAIN TRIGLYCERIDES AND METHODS RELATED THERETO” (Cerecin Inc., priority 2018, published 2021)

Experiments:
[1] = Visual dissolution study in SLS/water solution (scintillation vials); type: physicochemical; conditions: 250 mg oil in 10 ml 0.25% or 0.5% SLS in water, stirred 20 minutes
Procedure: Visual dissolution studies were conducted at small scale using 20 ml scintillation vials on LMP formulations 1 through 3. The test was conducted at 37° C., 25° C. and 5° C. using a 0.25% Sodium Laurel Sulfate (SLS) in water solution. A heated aluminum block and heated stir plate were used in the study. 500 mg (250 mgA, 25 mgA/mL) of each LMP formulation was added to 10 mL pre-heated 0.25% SLS solution. The samples were stirred using a Teflon stir bar on a heated stir plate to maintain temperature for 20 minutes. After 20 minutes, the LMP suspensions were allowed to settle and were assessed visually.
Finally the test was repeated using only LMP-1 and a 0.5% SLS/water solution to access if additional surfactant would help with the apparent dissolution by increasing the solubility of the oil in water.
An oil dissolution control test was conducted to determine how the caprylic triglyceride (Miglyol 808) oil dissolves into an SLS/water solution. Two SLS stock solutions were made at 0.25% and 0.5% SLS in water. 10 ml of each SLS solution was added to a scintillation vial along with a magnetic stir bar. 250 mg of caprylic triglyceride (Miglyol 808) oil was added to each vial and stirred for 20 minutes. Images were taken after 10 minutes and two days. […] The vial does appear slightly hazy in the 10 minute photo indicating some oil is likely emulsified in the water phase. […]

[2] = USP Type II sink dissolution, 2.0 wt % SLS in pH 6.8 buffer; type: physicochemical; conditions: for % LC Release, 10μ filtered: 500 mgA in 900 mL, 37° C.
Procedure: LMPs 1, 2, and 3 were tested in a USP Type II sink dissolution experiment along with caprylic triglyceride (Miglyol 808) oil. 500 mgA of formulation was dosed into a 1000 mL vessel containing 900 mL of 2.0wt % SLS in pH 6.8 buffer. Samples were taken at 30 minutes and 17.5 hours.
LMP-5, 7, 9, and 11 formulations were tested in a USP Type II sink dissolution experiment sink performance test using methods outlined described in EXAMPLE 3 (Tables 3-A, 3-B). […] The release rate trends as expected, in that adding more carnauba wax to the LMP matrix slows the dissolution. This is because carnauba wax is more hydrophobic than Compritol 888. […] Adding a pore former to the base LMP-11 formulation may allow for increased dissolution performance by enhancing water permeability while maintaining the desirable physical and handling attributes.
Formulations BREC1690-155, 156, 160, 161, and 162 were tested in a sink dissolution performance test using methods outlined herein at EXAMPLE 3 (Tables 3-A and 3-B). The dissolution rate was increased by the addition of a water soluble component (PVP 17PF, PVP-VA 64 or poloxamer P407). Dissolution was tested on formulations BREC1690-155, 156, 160, 161, and 162. Comparisons of previous Compritol based LMPs (LMP-2 and LMP-5) and BREC1690- 155, 156, and 162 with a dissolution enhancer are shown in FIG. 22.

- % LC Release, centrifuged ([2]; 30 minutes): 31.6% ± 2%
- % LC Release, 10μ filtered ([2]; 30 minutes): 64% (n = 1) % LC
- % LC Release, 0.2μ filtered ([2]; 17.5 hours): 87% ± 7%
- % LC Release, centrifuged ([2]; 17.5 hours): 27.3% ± 0.6%
- % LC Release, 10μ filtered ([2]; 17.5 hours): 46.5% ± 0.5%
Substance: caprylic triglyceride [Miglyol 808]
- oil dissolution control, visual [1]: majority of the oil floats on top of the water rather than going into solution
